Experimental data as given in the NIST ThermoML archive (doi:10.1021/je700699u).

Assay: cn = amount concentration of the nth substance listed, in mol/dm3
Conditions: 101 kPa, Liquid

N[C@@H](CC(=O)O)C(=O)[O-].[K+] [potassium (S)-2-amino-3-carboxypropanoate] + O
Conditions	mass density, 298.15 K [kg/m3]	mass density, 303.15 K [kg/m3]	mass density, 313.15 K [kg/m3]	mass density, 323.15 K [kg/m3]	mass density, 333.15 K [kg/m3]	viscosity, 298.15 K [mPa·s]	viscosity, 303.15 K [mPa·s]	viscosity, 313.15 K [mPa·s]	viscosity, 323.15 K [mPa·s]	viscosity, 333.15 K [mPa·s]
c1 = 0.255	1029	1027	1024	1020	1015	0.992	0.887	0.725	0.613	0.525
c1 = 0.47	1059	1057	1053	1049	1045	1.104	0.998	0.816	0.693	0.593
c1 = 0.708	1089	1087	1083	1079	1074	1.239	1.115	0.914	0.771	0.663
c1 = 0.979	1119	1117	1113	1109	1105	1.419	1.269	1.041	0.865	0.743
c1 = 1.208	1147	1145	1141	1137	1133	1.615	1.45	1.185	0.994	0.836
c1 = 1.449	1176	1173	1169	1166	1162	1.856	1.667	1.353	1.142	0.957

N[C@@H](CCC(=O)O)C(=O)[O-].[K+] [potassium (S)-2-amino-4-carboxybutanoate] + O
Conditions	mass density, 298.15 K [kg/m3]	mass density, 303.15 K [kg/m3]	mass density, 313.15 K [kg/m3]	mass density, 323.15 K [kg/m3]	mass density, 333.15 K [kg/m3]	viscosity, 298.15 K [mPa·s]	viscosity, 303.15 K [mPa·s]	viscosity, 313.15 K [mPa·s]	viscosity, 323.15 K [mPa·s]	viscosity, 333.15 K [mPa·s]
c1 = 0.248	1029	1027	1024	1019	1017	1.011	0.908	0.744	0.623	0.535
c1 = 0.493	1059	1057	1054	1049	1047	1.163	1.041	0.854	0.713	0.611
c1 = 0.733	1088	1086	1083	1078	1076	1.344	1.199	0.982	0.817	0.699
c1 = 1	1117	1116	1112	1107	1105	1.579	1.404	1.143	0.953	0.809
c1 = 1.24	1145	1143	1139	1134	1132	1.844	1.644	1.336	1.101	0.933
c1 = 1.469	1173	1171	1167	1162	1160	2.194	1.962	1.57	1.295	1.089

N=C(N)NCCC[C@H](N)C(=O)[O-].[K+] [potassium L-argininate] + O
Conditions	mass density, 298.15 K [kg/m3]	mass density, 303.15 K [kg/m3]	mass density, 313.15 K [kg/m3]	mass density, 323.15 K [kg/m3]	mass density, 333.15 K [kg/m3]	viscosity, 298.15 K [mPa·s]	viscosity, 303.15 K [mPa·s]	viscosity, 313.15 K [mPa·s]	viscosity, 323.15 K [mPa·s]	viscosity, 333.15 K [mPa·s]
c1 = 0.238	1021	1019	1016	1011	1007	1.026	0.917	0.75	0.63	0.539
c1 = 0.479	1043	1041	1037	1032	1027	1.215	1.098	0.886	0.738	0.632
c1 = 0.725	1064	1062	1058	1053	1048	1.431	1.276	1.035	0.856	0.723
c1 = 0.971	1087	1085	1080	1075	1069	1.882	1.553	1.244	1.019	0.848

N[C@@H](Cc1ccccc1)C(=O)[O-].[K+] [potassium L-phenylalaninate] + O
Conditions	mass density, 298.15 K [kg/m3]	mass density, 303.15 K [kg/m3]	mass density, 313.15 K [kg/m3]	mass density, 323.15 K [kg/m3]	mass density, 333.15 K [kg/m3]	viscosity, 298.15 K [mPa·s]	viscosity, 303.15 K [mPa·s]	viscosity, 313.15 K [mPa·s]	viscosity, 323.15 K [mPa·s]	viscosity, 333.15 K [mPa·s]
c1 = 0.25	1015	1014	1010	1005	1001	1.059	0.938	0.769	0.641	0.549
c1 = 0.496	1032	1031	1027	1022	1017	1.224	1.092	0.884	0.738	0.631
c1 = 0.745	1051	1049	1044	1039	1034	–	–	–	–	–
c1 = 0.746	–	–	–	–	–	1.441	1.279	1.032	0.852	0.72
c1 = 0.996	1067	1065	1060	1055	1049	1.695	1.495	1.194	0.98	0.823
c1 = 1.226	1084	1081	1077	1071	1066	–	–	–	–	–
c1 = 1.227	–	–	–	–	–	2.03	1.782	1.41	1.15	0.963
c1 = 1.453	1100	1097	1092	1087	1081	2.483	2.169	1.702	1.377	1.139

O=C([O-])[C@@H]1CCCN1.[K+] [potassium L-prolinate] + O
Conditions	mass density, 298.15 K [kg/m3]	mass density, 303.15 K [kg/m3]	mass density, 313.15 K [kg/m3]	mass density, 323.15 K [kg/m3]	mass density, 333.15 K [kg/m3]	viscosity, 298.15 K [mPa·s]	viscosity, 303.15 K [mPa·s]	viscosity, 313.15 K [mPa·s]	viscosity, 323.15 K [mPa·s]	viscosity, 333.15 K [mPa·s]
c1 = 0.507	1028	1027	1023	1019	1014	1.107	0.986	0.799	0.664	0.565
c1 = 1.01	1059	1057	1053	1048	1043	1.4	1.242	0.992	0.816	0.685
c1 = 1.523	1089	1087	1082	1077	1072	1.811	1.59	1.251	1.017	0.846
c1 = 2.01	1118	1115	1110	1105	1100	2.365	2.061	1.599	1.286	1.061
c1 = 2.521	1146	1144	1138	1133	1127	3.163	2.721	2.076	1.636	1.331
c1 = 2.983	1171	1168	1162	1156	1150	4.112	3.516	2.664	2.068	1.658
c1 = 3.448	1197	1194	1188	1182	1176	5.732	4.837	3.587	2.767	2.181

NCCCCCC(=O)[O-].[K+] [potassium Salt of 6-aminohexanoic acid] + O
Conditions	mass density, 298.15 K [kg/m3]	mass density, 303.15 K [kg/m3]	mass density, 313.15 K [kg/m3]	mass density, 323.15 K [kg/m3]	mass density, 333.15 K [kg/m3]	viscosity, 298.15 K [mPa·s]	viscosity, 303.15 K [mPa·s]	viscosity, 313.15 K [mPa·s]	viscosity, 323.15 K [mPa·s]	viscosity, 333.15 K [mPa·s]
c1 = 0.497	1024	1022	1018	1014	1009	1.191	1.058	0.854	0.706	0.599
c1 = 1.002	1049	1048	1044	1038	1034	1.608	1.418	1.126	0.913	0.762
c1 = 1.429	1072	1070	1067	1061	1057	2.152	1.882	1.497	1.199	0.987
c1 = 1.982	1098	1095	1089	1084	1078	3.091	2.669	2.035	1.608	1.307
c1 = 2.458	1119	1117	1111	1105	1098	4.445	3.796	2.85	2.211	1.768
c1 = 2.942	1141	1139	1132	1126	1118	6.601	5.573	4.112	3.145	2.458
